Reference: US7816342B2, “Anti-obesity compositions” (Hoffmann-La Roche Inc., priority 2002, dated 2010)
Several values for one entry are separate records, joined by “and”; a condition that tells them apart may be missing. Identical values can stand only once.

Test system: Healthy volunteers
Test: acute human side effect model (3-meal test), free oil
Type: in vivo
Details: orlistat alone (own control), individual volunteers
Description: To test substances that will ameliorate the oil-related side effects associated with orlistat treatment, an acute human model was developed. Healthy volunteers received orlistat alone or in combination with the test substance during 3 consecutive meals (3-meal test). The modified orlistat formulations used in these 3-meal tests induce 70-80% fat excretion. A questionnaire was given to the volunteers to record side effects. The most severe oil related side effect is oily spotting (uncontrolled loss of oil). This side effect is difficult to quantify accurately in an acute model, however, in some volunteers a spontaneous separation of fat from formed stool was observed. This amount of fat, called free oil (mainly containing triglycerides) was isolated and weighted. The amount of free oil was used as a surrogate marker for the oily spotting as this is considered necessary for the appearance of oily spotting. Two clinical studies have been conducted to investigate the gastro-intestinal adverse event modifying effects of numerous substances. It appears that volunteers show an individual sensitivity to the orlistat-related gastro-intestinal side effects. […] For a given volunteer a substance is considered as positive when the free oil quantity is reduced by at least 50% compared to the control value (orlistat alone). […]

For CCCCCCCCCCC[C@@H](C[C@@H]1OC(=O)[C@H]1CCCCCC)OC(=O)[C@H](CC(C)C)NC=O [orlistat], the Free oil production (Test 1) was 11 g/week and 9 g/week and the Free oil production (Test 2) was 17 g/week and 40 g/week and 39 g/week.
